Toxic doses and inconclusive results are not listed. No stated cut-off is given here; in the data, active means T/C of 150% or more; inactive means T/C below 125%.
Tested on: L1210 leukemia ip in BDF1 mice, survival T/C
Assay: NCI In Vivo Anticancer Drug Screen. Data for tumor model L1210 Leukemia (intraperitoneal) in B6D2F1 (BDF1) mice
Conditions: endpoint: mean survival time, higher = longer survival
Summary of the method: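 Tumor was transplanted into mice, which were then dosed with test compound or vehicle alone. Survival was recorded for each group, and the treated figure was expressed relative to the control figure.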

[1] = dose: 50.0 mg/kg/injection, schedule: Q01DX009 (ip), vehicle: saline with Tween-80
[2] = dose: 100.0 mg/kg/injection, schedule: Q01DX009 (ip), vehicle: saline with Tween-80
[3] = dose: 100.0 mg/kg/injection, schedule: Q04DX002 (ip), vehicle: saline with Tween-80
[4] = dose: 200.0 mg/kg/injection, schedule: Q04DX002 (ip), vehicle: saline with Tween-80
[5] = dose: 400.0 mg/kg/injection, schedule: Q04DX002 (ip), vehicle: saline with Tween-80
[6] = dose: 100.0 mg/kg/injection, schedule: Q01DX001 (ip), vehicle: carboxymethylcellulose (CMC)
[7] = dose: 200.0 mg/kg/injection, schedule: Q01DX001 (ip), vehicle: carboxymethylcellulose (CMC)
[8] = dose: 400.0 mg/kg/injection, schedule: Q01DX001 (ip), vehicle: carboxymethylcellulose (CMC)
[9] = dose: 100.0 mg/kg/injection, schedule: Q01DX009 (ip), vehicle: saline
[10] = dose: 200.0 mg/kg/injection, schedule: Q01DX009 (ip), vehicle: saline
[11] = dose: 75.0 mg/kg/injection, schedule: Q01DX001 (ip), vehicle: saline
[12] = dose: 12.5 mg/kg/injection, schedule: Q01DX009 (ip), vehicle: saline with Tween-80
[13] = dose: 25.0 mg/kg/injection, schedule: Q01DX009 (ip), vehicle: saline with Tween-80
[14] = dose: 100.0 mg/kg/injection, schedule: Q01DX001 (ip), vehicle: saline
[15] = dose: 200.0 mg/kg/injection, schedule: Q01DX001 (ip), vehicle: saline
[16] = dose: 400.0 mg/kg/injection, schedule: Q01DX001 (ip), vehicle: saline
[17] = dose: 100.0 mg/kg/injection, schedule: Q04DX003 (ip), vehicle: saline with Tween-80
[18] = dose: 200.0 mg/kg/injection, schedule: Q04DX003 (ip), vehicle: saline with Tween-80
[19] = dose: 400.0 mg/kg/injection, schedule: Q04DX003 (ip), vehicle: saline with Tween-80

Measured: T/C

C[N+](C)(C)c1ncnc2c1ncn2C1CCCO1 (stereo not given)
inactive: dose: 50.0 mg/kg/injection, schedule: Q01DX Z (ip), vehicle: methylcellulose (MC) 92 % of control | dose: 100.0 mg/kg/injection, schedule: Q01DX Z (ip), vehicle: methylcellulose (MC) 94 % of control

Cc1ccc(S(=O)(=O)Nc2ccc(Nc3ccccc3)cc2)cc1
inactive: [1] 94 % of control | [2] 94 % of control | dose: 200.0 mg/kg/injection, schedule: Q01DX009 (ip), vehicle: saline with Tween-80 102 % of control

CC(=O)[O][Sb]([O]C(C)=O)([c]1ccccc1)([c]1ccccc1)[c]1ccccc1
inactive: [3] 96 % of control | [4] 96 % of control | [5] 96 % of control

c1ccc2oc(N3CCN(c4nc5ccccc5o4)CC3)nc2c1
inactive: [6] 102 % of control | [7] 91 % of control | [8] 88 % of control

CCCC(CCC)=NCCN=C(CCC)CCC
inactive: [9] 97 % of control | [10] 94 % of control

CC1(C)CC(C(=O)O)C(=O)O1 (stereo not given)
inactive: [11] 97 % of control | dose: 150.0 mg/kg/injection, schedule: Q01DX001 (ip), vehicle: saline 103 % of control | dose: 300.0 mg/kg/injection, schedule: Q01DX001 (ip), vehicle: saline 98 % of control

CCN1C(=O)/C(=C\c2ccccc2)N=C1C
inactive: dose: 12.5 mg/kg/injection, schedule: Q01DX009 (ip), vehicle: DMSO 92 % of control | dose: 25.0 mg/kg/injection, schedule: Q01DX009 (ip), vehicle: DMSO 94 % of control | dose: 50.0 mg/kg/injection, schedule: Q01DX009 (ip), vehicle: DMSO 96 % of control

OCCCC1CCCCC1
active: [9] 175 % of control
inactive: dose: 50.0 mg/kg/injection, schedule: Q01DX009 (ip), vehicle: saline 97 % of control | [10] 103 % of control

CCCCN(C)/N=N/c1nc[nH]c1C(=O)OC
inactive: dose: 33.0 mg/kg/injection, schedule: Q01DX015 (ip), vehicle: carboxymethylcellulose (CMC) 108 % of control | dose: 45.0 mg/kg/injection, schedule: Q01DX015 (ip), vehicle: carboxymethylcellulose (CMC) 117 % of control | dose: 60.0 mg/kg/injection, schedule: Q01DX015 (ip), vehicle: carboxymethylcellulose (CMC) 95 % of control | dose: 75.0 mg/kg/injection, schedule: Q01DX015 (ip), vehicle: carboxymethylcellulose (CMC) 86 % of control | [6] 98 % of control | [7] 104 % of control | [8] 124 % of control

C[N+](C)(C)c1ncnc2[n-]cnc12
inactive: dose: 50.0 mg/kg/injection, schedule: Q01DX015 (ip), vehicle: saline 110 % of control

CCCCCCCCCCCCOCCCN
inactive: [12] 98 % of control | dose: 12.5 mg/kg/injection, schedule: Q04DX003 (ip), vehicle: saline with Tween-80 92 % of control | [13] 90 % of control | dose: 25.0 mg/kg/injection, schedule: Q04DX003 (ip), vehicle: saline with Tween-80 90 % of control | dose: 50.0 mg/kg/injection, schedule: Q04DX003 (ip), vehicle: saline with Tween-80 92 % of control

Cc1cs[n+](C)c1
inactive: [14] 94 % of control | [15] 97 % of control

CC(C)(CBr)C(=O)Cl
inactive: [14] 101 % of control | [15] 106 % of control | [16] 101 % of control

Clc1ccc(C2OCCO2)c(Cl)c1
inactive: [14] 97 % of control | [15] 92 % of control | [16] 87 % of control

COc1ccc(NC(=O)Nc2ccc(C)c(Cl)c2)cc1
inactive: dose: 100.0 mg/kg/injection, schedule: Q01DX009 (sc), vehicle: olive oil, sesame oil, peanut oil 96 % of control | dose: 100.0 mg/kg/injection, schedule: Q04DX003 (sc), vehicle: olive oil, sesame oil, peanut oil 99 % of control | dose: 200.0 mg/kg/injection, schedule: Q01DX009 (sc), vehicle: olive oil, sesame oil, peanut oil 107 % of control | dose: 200.0 mg/kg/injection, schedule: Q04DX003 (sc), vehicle: olive oil, sesame oil, peanut oil 93 % of control | dose: 400.0 mg/kg/injection, schedule: Q01DX009 (sc), vehicle: olive oil, sesame oil, peanut oil 94 % of control | dose: 400.0 mg/kg/injection, schedule: Q04DX003 (sc), vehicle: olive oil, sesame oil, peanut oil 97 % of control

O=[N+]([O-])c1ccccc1C1CCCCC1
inactive: [3] 89 % of control | [4] 93 % of control | [5] 100 % of control

Cc1ccc(OS(=O)(=O)c2cccc([N+](=O)[O-])c2)cc1
inactive: [17] 102 % of control | [18] 97 % of control | [19] 100 % of control

NNC(=O)c1ccc[nH]1
inactive: [11] 102 % of control

O=C(O)/C(=C\c1ccccc1)c1ccccc1
inactive: [17] 100 % of control | [18] 94 % of control | [19] 100 % of control

O=C(CCl)c1ccc(Oc2ccc(C(=O)CCl)cc2)cc1
inactive: dose: 50.0 mg/kg/injection, schedule: Q01DX001 (ip), vehicle: saline 100 % of control | [14] 97 % of control | [15] 97 % of control | [16] 105 % of control

CCCCCCC(CCCCCC)(CCCCCC)B1OCCO1
inactive: dose: 100.0 mg/kg/injection, schedule: Q01DX009 (ip), vehicle: saline sonified 96 % of control | dose: 100.0 mg/kg/injection, schedule: Q04DX003 (ip), vehicle: saline 102 % of control | dose: 200.0 mg/kg/injection, schedule: Q01DX009 (ip), vehicle: saline sonified 106 % of control | dose: 200.0 mg/kg/injection, schedule: Q04DX003 (ip), vehicle: saline 102 % of control | dose: 400.0 mg/kg/injection, schedule: Q01DX009 (ip), vehicle: saline sonified 95 % of control | dose: 400.0 mg/kg/injection, schedule: Q04DX003 (ip), vehicle: saline 96 % of control

CC(=O)CC(=O)C(F)(F)F.CC(=O)CC(=O)C(F)(F)F.CC(=O)CC(=O)C(F)(F)F.[Cr]
inactive: [6] 109 % of control | [7] 96 % of control | [8] 98 % of control

S=C=NCCc1ccccc1
inactive: [12] 101 % of control | [13] 104 % of control | [1] 108 % of control | [2] 87 % of control

C/C(=N/N(C)C)c1cccs1
inactive: dose: 4.0 mg/kg/injection, schedule: Q04DX003 (sc), vehicle: olive oil, sesame oil, peanut oil 89 % of control | dose: 6.0 mg/kg/injection, schedule: Q04DX003 (sc), vehicle: olive oil, sesame oil, peanut oil 103 % of control | dose: 9.0 mg/kg/injection, schedule: Q04DX003 (sc), vehicle: olive oil, sesame oil, peanut oil 99 % of control | dose: 12.5 mg/kg/injection, schedule: Q04DX003 (sc), vehicle: olive oil, sesame oil, peanut oil 102 % of control | dose: 14.0 mg/kg/injection, schedule: Q04DX003 (sc), vehicle: olive oil, sesame oil, peanut oil 97 % of control | dose: 22.0 mg/kg/injection, schedule: Q04DX003 (sc), vehicle: olive oil, sesame oil, peanut oil 120 % of control | dose: 33.0 mg/kg/injection, schedule: Q04DX003 (sc), vehicle: olive oil, sesame oil, peanut oil 124 % of control | dose: 50.0 mg/kg/injection, schedule: Q04DX003 (sc), vehicle: olive oil, sesame oil, peanut oil 98 % of control

C/C(=C/c1ccccc1)S(=O)(=O)c1ccccc1
inactive: [14] 105 % of control | [9] 91 % of control | [15] 100 % of control | [10] 94 % of control | [16] 105 % of control | dose: 400.0 mg/kg/injection, schedule: Q01DX009 (ip), vehicle: saline 93 % of control

O=C(O)/C(=C\c1ccc([N+](=O)[O-])cc1)c1cccc2ccccc12
inactive: dose: 50.0 mg/kg/injection, schedule: Q04DX003 (ip), vehicle: Klucel (hydroxypropylcellulose) (HPC) 94 % of control | dose: 100.0 mg/kg/injection, schedule: Q01DX009 (ip), vehicle: Klucel (hydroxypropylcellulose) (HPC) 93 % of control | dose: 100.0 mg/kg/injection, schedule: Q04DX003 (ip), vehicle: Klucel (hydroxypropylcellulose) (HPC) 89 % of control | dose: 200.0 mg/kg/injection, schedule: Q01DX009 (ip), vehicle: Klucel (hydroxypropylcellulose) (HPC) 98 % of control | dose: 200.0 mg/kg/injection, schedule: Q04DX003 (ip), vehicle: Klucel (hydroxypropylcellulose) (HPC) 91 % of control

From PubChem BioAssay AID248 (DTP/NCI, 2004)
